Source: paper PMC6496074, “The Evolution of Azole Resistance in Candida albicans Sterol 14α-Demethylase (CYP51) through Incremental Amino Acid Substitutions” (Antimicrobial Agents and Chemotherapy, 2019)

Key:
Experiment in all cases: CYP51 reconstitution assay
Assay type in all cases: biochemical
CaCYP51 F145L = target: T1, CaCYP51 F145L (Candida albicans, UniProt P10613, F145L); settings: 0.25 h, 4 μM triazole, % of activity without triazole, read-out: Residual CYP51 activity (%) ± SD
T1 construct: made in house; host or cells: E. coli DH5α (pCWori+)
Protocol: (§1) Azole antifungal agents were added in 2.5 μl dimethyl sulfoxide, followed by 10 min of incubation at 37°C prior to assay initiation with 4 mM β-NADPH-Na4. The samples were then shaken for 15 min at 37°C. Sterol metabolites were recovered by extraction with ethyl acetate, followed by derivatization with 0.1 ml N,O-bis(trimethylsilyl)trifluoroacetamide (BSTFA)–trimethylchlorosilane (TMCS) (99:1) and 0.3 ml anhydrous pyridine (2 h at 80°C), prior to analysis by gas chromatography-mass spectrometry (GC-MS) ([52]). IC50 determinations were performed in duplicate.

CaCYP51 G450E = target: T2, CaCYP51 G450E (Candida albicans, UniProt P10613, G450E); settings: 0.25 h, 4 μM triazole, % of activity without triazole, read-out: Residual CYP51 activity (%) ± SD
T2 construct: made in house; host or cells: E. coli DH5α (pCWori+)
Protocol: as §1

CaCYP51 V456I = target: T3, CaCYP51 V456I (Candida albicans, UniProt P10613, V456I); settings: 0.25 h, 4 μM triazole, % of activity without triazole, read-out: Residual CYP51 activity (%) ± SD
T3 construct: made in house; host or cells: E. coli DH5α (pCWori+)
Protocol: as §1

CaCYP51 Y118A = target: T4, CaCYP51 Y118A (Candida albicans, UniProt P10613, Y118A); settings: 0.25 h, 4 μM triazole, % of activity without triazole, read-out: Residual CYP51 activity (%) ± SD
T4 construct: made in house; host or cells: E. coli DH5α (pCWori+)
Protocol: as §1

CaCYP51 Y132F = target: T5, CaCYP51 Y132F (Candida albicans, UniProt P10613, Y132F); settings: 0.25 h, 4 μM triazole, % of activity without triazole, read-out: Residual CYP51 activity (%) ± SD
T5 construct: made in house; host or cells: E. coli DH5α (pCWori+)
Protocol: as §1

CaCYP51 D278N = target: T6, CaCYP51 D278N (Candida albicans, UniProt P10613, D278N); settings: 0.25 h, 4 μM triazole, % of activity without triazole, read-out: Residual CYP51 activity (%) ± SD
T6 construct: made in house; host or cells: E. coli DH5α (pCWori+)
Protocol: as §1

CaCYP51 Wild type = target: T7, CaCYP51 Wild type (Candida albicans, UniProt P10613); settings: 0.25 h; Wild type; 4 μM triazole; % of activity without triazole; read-out: Residual CYP51 activity (%) ± SD
T7 construct: made in house; host or cells: E. coli DH5α (pCWori+)
Protocol: as §1

CaCYP51 Y257H = target: T8, CaCYP51 Y257H (Candida albicans, UniProt P10613, Y257H); settings: 0.25 h, 4 μM triazole, % of activity without triazole, read-out: Residual CYP51 activity (%) ± SD
T8 construct: made in house; host or cells: E. coli DH5α (pCWori+)
Protocol: as §1

CaCYP51 I471T = target: T9, CaCYP51 I471T (Candida albicans, UniProt P10613, I471T); settings: 0.25 h, 4 μM triazole, % of activity without triazole, read-out: Residual CYP51 activity (%) ± SD
T9 construct: made in house; host or cells: E. coli DH5α (pCWori+)
Protocol: as §1

CaCYP51 G307S = target: T10, CaCYP51 G307S (Candida albicans, UniProt P10613, G307S); settings: 0.25 h, 4 μM triazole, % of activity without triazole, read-out: Residual CYP51 activity (%) ± SD
T10 construct: made in house; host or cells: E. coli DH5α (pCWori+)
Protocol: as §1

CaCYP51 S405F = target: T11, CaCYP51 S405F (Candida albicans, UniProt P10613, S405F); settings: 0.25 h, 4 μM triazole, % of activity without triazole, read-out: Residual CYP51 activity (%) ± SD
T11 construct: made in house; host or cells: E. coli DH5α (pCWori+)
Protocol: as §1

CaCYP51 G448E = target: T12, CaCYP51 G448E (Candida albicans, UniProt P10613, G448E); settings: 0.25 h, 4 μM triazole, % of activity without triazole, read-out: Residual CYP51 activity (%) ± SD
T12 construct: made in house; host or cells: E. coli DH5α (pCWori+)
Protocol: as §1

CaCYP51 V488I = target: T13, CaCYP51 V488I (Candida albicans, UniProt P10613, V488I); settings: 0.25 h, 4 μM triazole, % of activity without triazole, read-out: Residual CYP51 activity (%) ± SD
T13 construct: made in house; host or cells: E. coli DH5α (pCWori+)
Protocol: as §1

CaCYP51 G307S+G450E = target: T14, CaCYP51 G307S+G450E (Candida albicans, UniProt P10613, G307S/G450E); settings: 0.25 h, 4 μM triazole, % of activity without triazole, read-out: Residual CYP51 activity (%) ± SD
T14 construct: made in house; host or cells: E. coli DH5α (pCWori+)
Protocol: as §1

CaCYP51 F126V = target: T15, CaCYP51 F126V (Candida albicans, UniProt P10613, F126V); settings: 0.25 h, 4 μM triazole, % of activity without triazole, read-out: Residual CYP51 activity (%) ± SD
T15 construct: made in house; host or cells: E. coli DH5α (pCWori+)
Protocol: as §1

CaCYP51 P230L = target: T16, CaCYP51 P230L (Candida albicans, UniProt P10613, P230L); settings: 0.25 h, 4 μM triazole, % of activity without triazole, read-out: Residual CYP51 activity (%) ± SD
T16 construct: made in house; host or cells: E. coli DH5α (pCWori+)
Protocol: as §1

CaCYP51 K143R = target: T17, CaCYP51 K143R (Candida albicans, UniProt P10613, K143R); settings: 0.25 h, 4 μM triazole, % of activity without triazole, read-out: Residual CYP51 activity (%) ± SD
T17 construct: made in house; host or cells: E. coli DH5α (pCWori+)
Protocol: as §1

CaCYP51 R467K = target: T18, CaCYP51 R467K (Candida albicans, UniProt P10613, R467K); settings: 0.25 h, 4 μM triazole, % of activity without triazole, read-out: Residual CYP51 activity (%) ± SD
T18 construct: made in house; host or cells: E. coli DH5α (pCWori+)
Protocol: as §1

CaCYP51 Y132H+K143R = target: T19, CaCYP51 Y132H+K143R (Candida albicans, UniProt P10613, K143R/Y132H); settings: 0.25 h, 4 μM triazole, % of activity without triazole, read-out: Residual CYP51 activity (%) ± SD
T19 construct: made in house; host or cells: E. coli DH5α (pCWori+)
Protocol: as §1

CaCYP51 G464S = target: T20, CaCYP51 G464S (Candida albicans, UniProt P10613, G464S); settings: 0.25 h, 4 μM triazole, % of activity without triazole, read-out: Residual CYP51 activity (%) ± SD
T20 construct: made in house; host or cells: E. coli DH5α (pCWori+)
Protocol: as §1

CaCYP51 Y132H = target: T21, CaCYP51 Y132H (Candida albicans, UniProt P10613, Y132H); settings: 0.25 h, 4 μM triazole, % of activity without triazole, read-out: Residual CYP51 activity (%) ± SD
T21 construct: made in house; host or cells: E. coli DH5α (pCWori+)
Protocol: as §1

CaCYP51 Q474K = target: T22, CaCYP51 Q474K (Candida albicans, UniProt P10613, Q474K); settings: 0.25 h, 4 μM triazole, % of activity without triazole, read-out: Residual CYP51 activity (%) ± SD
T22 construct: made in house; host or cells: E. coli DH5α (pCWori+)
Protocol: as §1

CaCYP51 S279F = target: T23, CaCYP51 S279F (Candida albicans, UniProt P10613, S279F); settings: 0.25 h, 4 μM triazole, % of activity without triazole, read-out: Residual CYP51 activity (%) ± SD
T23 construct: made in house; host or cells: E. coli DH5α (pCWori+)
Protocol: as §1

CaCYP51 F449Y = target: T24, CaCYP51 F449Y (Candida albicans, UniProt P10613, F449Y); settings: 0.25 h, 4 μM triazole, % of activity without triazole, read-out: Residual CYP51 activity (%) ± SD
T24 construct: made in house; host or cells: E. coli DH5α (pCWori+)
Protocol: as §1

T10 sequence (P10613 whole entry, looked up, stated change not applied): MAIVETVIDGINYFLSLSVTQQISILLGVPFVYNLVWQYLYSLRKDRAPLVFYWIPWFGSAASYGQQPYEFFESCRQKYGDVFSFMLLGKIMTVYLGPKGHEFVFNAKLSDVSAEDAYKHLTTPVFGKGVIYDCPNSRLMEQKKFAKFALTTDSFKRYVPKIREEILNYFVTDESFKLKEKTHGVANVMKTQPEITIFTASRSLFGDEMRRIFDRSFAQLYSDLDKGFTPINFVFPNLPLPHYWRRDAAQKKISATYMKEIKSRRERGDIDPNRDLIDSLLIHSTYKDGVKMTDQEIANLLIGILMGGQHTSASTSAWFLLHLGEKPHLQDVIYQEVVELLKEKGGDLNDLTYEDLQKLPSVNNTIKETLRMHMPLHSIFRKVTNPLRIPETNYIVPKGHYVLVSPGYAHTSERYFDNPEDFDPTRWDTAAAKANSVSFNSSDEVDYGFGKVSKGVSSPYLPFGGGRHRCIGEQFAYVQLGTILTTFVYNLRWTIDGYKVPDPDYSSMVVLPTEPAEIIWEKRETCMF
T6 sequence (P10613 whole entry, looked up, stated change not applied): as above
T22 sequence (P10613 whole entry, looked up, stated change not applied): as above
T23 sequence (P10613 whole entry, looked up, stated change not applied): as above
T18 sequence (P10613 whole entry, looked up, stated change not applied): as above
T3 sequence (P10613 whole entry, looked up, stated change not applied): as above
T13 sequence (P10613 whole entry, looked up, stated change not applied): as above
T16 sequence (P10613 whole entry, looked up, stated change not applied): as above
T19 sequence (P10613 whole entry, looked up, stated change not applied): as above

`C[C@@H](c1ncncc1F)[C@](O)(Cn1cncn1)c1ccc(F)cc1F` [Voriconazole, voriconazole] was tested, and the remaining activity at 4 µM (CaCYP51 F145L) was 0.37 ± 0.11%, the remaining activity at 4 µM (CaCYP51 G450E) was 3.5 ± 0.17% and the remaining activity at 4 µM (CaCYP51 V456I) was 0.79 ± 0.07%. It also gave a remaining activity at 4 µM (CaCYP51 Y118A) of 0.28 ± 0.04%, a remaining activity at 4 µM (CaCYP51 Y132F) of 1.09 ± 0.05% and a remaining activity at 4 µM (CaCYP51 D278N) of 1.34 ± 0.05%. It also gave a remaining activity at 4 µM (CaCYP51 Wild type) of 0.11 ± 0.01%, a remaining activity at 4 µM (CaCYP51 Y257H) of 0.63 ± 0.27% and a remaining activity at 4 µM (CaCYP51 I471T) of 0.92 ± 0.05%. The remaining activity at 4 µM (CaCYP51 G307S) was 0.41 ± 0.04%, the remaining activity at 4 µM (CaCYP51 S405F) was 1.94 ± 0.12% and the remaining activity at 4 µM (CaCYP51 G448E) was 1.89 ± 0.61%. It also gave a remaining activity at 4 µM (CaCYP51 V488I) of 0.13 ± 0.08%, a remaining activity at 4 µM (CaCYP51 G307S+G450E) of 0.41 ± 0.1% and a remaining activity at 4 µM (CaCYP51 F126V) of 0.19 ± 0.06%. It also gave a remaining activity at 4 µM (CaCYP51 P230L) of 0.13 ± 0.12%, a remaining activity at 4 µM (CaCYP51 K143R) of 3.12 ± 0.27% and a remaining activity at 4 µM (CaCYP51 R467K) of 0.52 ± 0.18%. For the same molecule, the remaining activity at 4 µM (CaCYP51 Y132H+K143R) was 39.6 ± 8.63%, the remaining activity at 4 µM (CaCYP51 G464S) was 0.1 ± 0.01% and the remaining activity at 4 µM (CaCYP51 Y132H) was 0.33 ± 0.19%. The remaining activity at 4 µM (CaCYP51 Q474K) was 0.34 ± 0.04%, the remaining activity at 4 µM (CaCYP51 S279F) was 6.15 ± 0.66% and the remaining activity at 4 µM (CaCYP51 F449Y) was 0.56 ± 0.12%.
